PubChem BioAssay (NCI)
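Where inhibition never reached the appropriate level, the endpoint shown equals the highest concentration tested. Otherwise, values were interpolated linearly from a five-concentration, 48-hour dose response in 96-well plates. The concentration for full growth arrest is given as TGI.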

Tests used:
Experiment in all cases: growth of human tumour cells (NCI), 48 h
[1] = tested on: SF-539 CNS
[2] = tested on: EKVX NSCLC
[3] = tested on: KM12 colon
[4] = tested on: A498 renal
[5] = tested on: OVCAR-5 ovarian
[6] = tested on: M14 melanoma
[7] = tested on: NCI-H23 lung
[8] = tested on: PC-3 prostate
[9] = tested on: SNB-75 CNS
[10] = tested on: NCI/ADR-RES ovarian
[11] = tested on: U251 CNS
[12] = tested on: MDA-N
[13] = tested on: OVCAR-3 ovarian
[14] = tested on: CCRF-CEM leukemia
[15] = tested on: MALME-3M melanoma
[16] = tested on: A549 NSCLC
[17] = tested on: HT29 colon
[18] = tested on: HCC-2998 colon
[19] = tested on: HS 578T breast
[20] = tested on: SR leukemia
[21] = tested on: SNB-19 CNS
[22] = tested on: 786-0 renal
[23] = tested on: SF-268 CNS
[24] = tested on: DU-145 prostate
[25] = tested on: SK-MEL-2 melanoma
[26] = tested on: NCI-H522 lung
[27] = tested on: SK-OV-3 ovarian
[28] = tested on: K-562 leukemia
[29] = tested on: UACC-62 melanoma
[30] = tested on: MDA-MB-231 breast
[31] = tested on: RPMI-8226 leukemia
[32] = tested on: HL-60(TB) leukemia
[33] = tested on: MOLT-4 leukemia
[34] = tested on: TK-10 renal
[35] = tested on: MCF7 breast
[36] = tested on: NCI-H460 lung
[37] = tested on: NCI-H226 lung
[38] = tested on: BT-549 breast
[39] = tested on: ACHN renal
[40] = tested on: SW-620 colon
[41] = tested on: HCT-15 colon
[42] = tested on: OVCAR-4 ovarian
[43] = tested on: SF-295 CNS
[44] = tested on: UO-31 renal
[45] = tested on: HCT-116 colon
[46] = tested on: MDA-MB-435
[47] = tested on: SN12C renal
[48] = tested on: HOP-62 NSCLC
[49] = tested on: OVCAR-8 ovarian
[50] = tested on: T-47D breast
[51] = tested on: UACC-257 melanoma
[52] = tested on: IGROV1 ovarian
[53] = tested on: COLO 205 colon
[54] = tested on: SK-MEL-28 melanoma
[55] = tested on: CAKI-1 renal
[56] = tested on: HOP-92 NSCLC
[57] = tested on: RXF 393 renal
[58] = tested on: LOX IMVI melanoma
[59] = tested on: SK-MEL-5 melanoma

Measured: TGI

S=C1N=C2C(=N1)n1c3c(c4ccccc41)CCCC23 (configuration not stated)
63.3 µM: [26]
72.6 µM: [47]
32.9 µM: [22]
63.1 µM: [35]
35.6 µM: [58]
97.5 µM: [31]
> 100 µM: all other assays above

COc1cccc(N=Cc2cc(OC)c(OC)c(OC)c2)c1
not listed: [21] | [29]
> 100 µM: all other assays above

CN(/N=C(\C(=O)O)c1ccccc1)C1=NCCN1
not listed: [6] | [11] | [21]
> 100 µM: all other assays above

CCCc1[nH]nc(C(N)=O)c1N=NN(C)C
49 µM: [33]
40.6 µM: [20]
74.9 µM: [26]
80 µM: [35]
not listed: [5] | [36]
> 100 µM: all other assays above

COc1ccc(Oc2ccc3cc4c(cc3c2O)OCO4)c2cc(C)oc12
89.2 µM: [14]
70.1 µM: [56]
74.8 µM: [15]
49.8 µM: [18]
81.4 µM: [28]
72.3 µM: [53]
83.9 µM: [32]
32.3 µM: [59]
78.8 µM: [10]
45.2 µM: [31]
43.9 µM: [58]
61.1 µM: [51]
83.8 µM: [37]
93.3 µM: [20]
78.9 µM: [6]
45.1 µM: [57]
47.4 µM: [25]
64.3 µM: [36]
75.1 µM: [46]
55.3 µM: [17]
71.4 µM: [38]
65.3 µM: [33]
93.7 µM: [26] | [34]
not listed: [11]
> 100 µM: all other assays above
